# Assay results from ChEMBL document CHEMBL1649360, “β-carboline alkaloids from Stellaria dichotoma var. lanceolata and their anti-inflammatory activity” (J Nat Prod, 2010).
# System: RAW264.7
# Assay: Antiinflammatory activity in mouse RAW264.7 cells assessed as inhibition of LPS-stimulated nitric oxide production treated for 2 hrs before LPS challenge measured after 24 hrs […]
# Assay type: functional, cell-based
row,IC50 [µM],Structure (SMILES)
1,11.3,C/C=C(/C)C(=O)O[C@@H](C)c1nc(C(=O)N/C=C/C(=O)OC)cc2c1[nH]c1ccccc12 [DICHOTOMIDE X]
2,17.3,COC(=O)/C=C/NC(=O)c1cc2c([nH]c3ccccc32)c(C(C)=O)n1 [DICHOTOMIDE III]
3,17.9,COC(=O)c1cc2c([nH]c3ccccc32)c(C(C)=O)n1
4,19.3,CC(=O)c1nc(C(N)=O)cc2c1[nH]c1ccccc12 [STELLARINES A]
5,18.6,COC(=O)/C=C\NC(=O)c1cc2c([nH]c3ccccc32)c(C(C)=O)n1 [STELLARINES B]

row,Structure (SMILES),IC50 [µM]
1,N=C(N)NN [PIMAGEDINE],4.6
